Patent publication US20250019387A1 (Frontier Medicines Corporation, priority 0001, published 2025)

Target: KRAS G12C and cRAF (Ras-binding domain) interaction (Homo sapiens (Human), UniProt P01116, C118S/C51S/C80L/G12C)
Experiment: Inhibition of KRAS G12C and cRAF binding (AlphaScreen)
Conditions: GMPPNP-loaded KRAS G12C, 19-20 hours incubation with compound; read-out: IC50 (Inhibition of KRAS G12C and cRAF Binding)
Summary of the method: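 IC50 values come from 4-parameter nonlinear regression of AlphaScreen signal (680 nm excitation, 570 nm emission). Compound plates sat 19-20 h at room temperature before RBD and donor/acceptor beads were added in Hepes pH 7.4 buffer with 150 mM NaCl, 5 mM MgCl2, 2% DMSO for 60-90 min; biotin-AviTag-GST replaced RBD to flag assay-technology interferers.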

Chain of KRAS G12C and cRAF (Ras-binding domain) interaction (P01116 other isoform, or with tags, fused parts or gaps G12C/C51S/C80L/C118S): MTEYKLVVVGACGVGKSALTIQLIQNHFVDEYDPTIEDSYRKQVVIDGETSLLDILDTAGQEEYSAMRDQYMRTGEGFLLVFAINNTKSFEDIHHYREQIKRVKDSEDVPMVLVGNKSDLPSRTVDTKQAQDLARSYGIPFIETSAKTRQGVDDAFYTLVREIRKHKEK

Row | Structure (SMILES) | IC50
1 | C=CS(=O)(=O)[C@H]1C[C@H](N(C)c2nc(OC[C@@H]3CCCN3C)nc3c2CCN(c2cccc4cccc(Cl)c24)C3)C1 [Example 48, 7-(8-chloronaphthalen-1-yl)-N-methyl-2-(((S)-1-methylpyrrolidin-2-yl)methoxy)-N-((1r,3S)-3-(vinylsulfonyl)cyclobutyl)-5,6,7,8-tetrahydropyrido[3,4-d]pyrimidin-4-amine] | 100 to 500 nM
2 | C=CS(=O)(=O)C1CN(c2nc(OC[C@@H]3CCCN3C)nc3c2CCN(c2cccc4cccc(Cl)c24)C3)C1 [Example 50, (S)-7-(8-chloronaphthalen-1-yl)-2-((1-methylpyrrolidin-2-yl)methoxy)-4-(3-(vinylsulfonyl)azetidin-1-yl)-5,6,7,8-tetrahydropyrido[3,4-d]pyrimidine] | > 500 nM
3 | C=CS(=O)(=O)C1CCN(c2nc(OC[C@@H]3CCCN3C)nc3c2CCN(c2cccc4cccc(Cl)c24)C3)C1 (stereo partly drawn) [Example 51, 7-(8-chloronaphthalen-1-yl)-2-(((S)-1-methylpyrrolidin-2-yl)methoxy)-4-(3-(vinylsulfonyl)pyrrolidin-1-yl)-5,6,7,8-tetrahydropyrido[3,4-d]pyrimidine] | > 500 nM
4 | CN(CCS(=O)(=O)/C=C/CN1CC(F)C1)c1nc(OC[C@@H]2CCCN2C)nc2c1CCN(c1cccc3cccc(Cl)c13)C2 [Example 53, 7-(8-chloro-1-naphthyl)-N-[2-[(E)-3-(3-fluoroazetidin-1-yl)prop-1-enyl]sulfonylethyl]-N-methyl-2-[[(2S)-1-methylpyrrolidin-2-yl]methoxy]-6,8-dihydro-5H-pyrido[3,4-d]pyrimidin-4-amine] | 100 to 500 nM
5 | C/C=C/S(=O)(=O)CCN(C)c1nc(OCC23CCCN2CCC3)nc2c1CCN(c1cccc3cccc(Cl)c13)C2 [Example 54, (E)-7-(8-chloronaphthalen-1-yl)-2-((hexahydro-1H-pyrrolizin-7a-yl)methoxy)-N-methyl-N-(2-(prop-1-en-1-ylsulfonyl)ethyl)-5,6,7,8-tetrahydropyrido[3,4-d]pyrimidin-4-amine] | 100 to 500 nM
6 | C=CC(=O)N1C[C@H](O)[C@@H](N(C)c2nc(OC[C@@]34CCCN3C[C@H](F)C4)nc3c(F)c(-c4cccc5cccc(Cl)c45)ncc23)C1 [Example 57, 1-((3S,4S)-3-((7-(8-chloronaphthalen-1-yl)-8-fluoro-2-(((2R,7aS)-2-fluorohexahydro-1H-pyrrolizin-7a-yl)methoxy)pyrido[4,3-d]pyrimidin-4-yl)(methyl)amino)-4-hydroxypyrrolidin-1-yl)prop-2-en-1-one] | 100 to 500 nM
7 | CN(c1nc(OC[C@@]23CCCN2C[C@H](F)C3)nc2c(F)c(-c3cccc4cccc(Cl)c34)ncc12)[C@@H]1CCN(C(=O)C#CC2CCNC2)C1 (stereo partly drawn) [Example 58, 1-((R)-3-((7-(8-chloronaphthalen-1-yl)-8-fluoro-2-(((2R,7aS)-2-fluorohexahydro-1H-pyrrolizin-7a-yl)methoxy)pyrido[4,3-d]pyrimidin-4-yl)(methyl)amino)pyrrolidin-1-yl)-3-(pyrrolidin-3-yl)prop-2-yn-1-one] | 10 to 100 nM
8 | C=CC(=O)N1CC(F)(CN(C)c2nc(OC[C@@]34CCCN3C[C@H](F)C4)nc3c(F)c(-c4cccc5ccc(F)c(Cl)c45)ncc23)C1 [Example 60, 1-(3-(((7-(8-chloro-7-fluoronaphthalen-1-yl)-8-fluoro-2-(((2R,7aS)-2-fluorotetrahydro-1H-pyrrolizin-7a(5H)-yl)methoxy)pyrido[4,3-d]pyrimidin-4-yl)(methyl)amino)methyl)-3-fluoroazetidin-1-yl)prop-2-en-1-one] | 100 to 500 nM
9 | CN(c1nc(OCC23CCCN2CCC3)nc2c(F)c(-c3cccc4ccc(F)c(Cl)c34)ncc12)[C@@H]1CCN(C(=O)/C=C/c2nc(C(C)(C)O)no2)C1 [Example 61, (R,E)-1-(3-((7-(8-chloro-7-fluoronaphthalen-1-yl)-8-fluoro-2-((hexahydro-1H-pyrrolizin-7a-yl)methoxy)pyrido[4,3-d]pyrimidin-4-yl)(methyl)amino)pyrrolidin-1-yl)-3-(3-(2-hydroxypropan-2-yl)-1,2,4-oxadiazol-5-yl)prop-2-en-1-one] | 10 to 100 nM
10 | Cc1nccc(/C=C/C(=O)N2CC(CN(C)c3nc(OC[C@@]45CCCN4C[C@H](F)C5)nc4c(F)c(-c5cccc6cccc(Cl)c56)ncc34)C2)n1 [Example 62, (E)-1-(3-(((7-(8-chloronaphthalen-1-yl)-8-fluoro-2-(((2R,7aS)-2-fluorotetrahydro-1H-pyrrolizin-7a(5H)-yl)methoxy)pyrido[4,3-d]pyrimidin-4-yl)(methyl)amino)methyl)azetidin-1-yl)-3-(2-methylpyrimidin-4-yl)prop-2-en-1-one] | 10 to 100 nM
11 | CN(CC1CN(C(=O)/C=C/c2ccncn2)C1)c1nc(OC[C@@]23CCCN2C[C@H](F)C3)nc2c(F)c(-c3cccc4cccc(Cl)c34)ncc12 [Example 63, (E)-1-(3-(((7-(8-chloronaphthalen-1-yl)-8-fluoro-2-(((2R,7aS)-2-fluorotetrahydro-1H-pyrrolizin-7a(5H)-yl)methoxy)pyrido[4,3-d]pyrimidin-4-yl)(methyl)amino)methyl)azetidin-1-yl)-3-(pyrimidin-4-yl)prop-2-en-1-one] | 10 to 100 nM
12 | CN1CCC(C#CC(=O)N2CC[C@@H](N(C)c3nc(OC[C@@]45CCCN4C[C@H](F)C5)nc4c(F)c(-c5cccc6cccc(Cl)c56)ncc34)C2)C1 (stereo partly drawn) [Example 65, 1-((R)-3-((7-(8-chloronaphthalen-1-yl)-8-fluoro-2-(((2R,7aS)-2-fluorohexahydro-1H-pyrrolizin-7a-yl)methoxy)pyrido[4,3-d]pyrimidin-4-yl)(methyl)amino)pyrrolidin-1-yl)-3-(1-methylpyrrolidin-3-yl)prop-2-yn-1-one] | 10 to 100 nM
13 | CN1CCCC1C#CC(=O)N1CC[C@@H](N(C)c2nc(OC[C@@]34CCCN3C[C@H](F)C4)nc3c(F)c(-c4cccc5cccc(Cl)c45)ncc23)C1 (stereo partly drawn) [Example 66, 1-((R)-3-((7-(8-chloronaphthalen-1-yl)-8-fluoro-2-(((2R,7aS)-2-fluorotetrahydro-1H-pyrrolizin-7a(5H)-yl)methoxy)pyrido[4,3-d]pyrimidin-4-yl)(methyl)amino)pyrrolidin-1-yl)-3-(1-methylpyrrolidin-2-yl)prop-2-yn-1-one] | 10 to 100 nM
14 | CN1CC(C#CC(=O)N2CC[C@@H](N(C)c3nc(OC[C@@]45CCCN4C[C@H](F)C5)nc4c(F)c(-c5cccc6cccc(Cl)c56)ncc34)C2)C1 [Example 67, 1-((R)-3-((7-(8-chloronaphthalen-1-yl)-8-fluoro-2-(((2R,7aS)-2-fluorohexahydro-1H-pyrrolizin-7a-yl)methoxy)pyrido[4,3-d]pyrimidin-4-yl)(methyl)amino)pyrrolidin-1-yl)-3-(1-methylazetidin-3-yl)prop-2-yn-1-one] | 10 to 100 nM

Further lines, results first:

Row | IC50 | Structure (SMILES)
15 | < 10 nM | C=CS(=O)(=O)CCN(C)c1nc(OCC23CCCN2CCC3)nc2c1CCN(c1cccc3cccc(Cl)c13)C2 [Example 49, 7-(8-chloronaphthalen-1-yl)-2-((hexahydro-1H-pyrrolizin-7a-yl)methoxy)-N-methyl-N-(2-(vinylsulfonyl)ethyl)-5,6,7,8-tetrahydropyrido[3,4-d]pyrimidin-4-amine]
16 | 10 to 100 nM | CN(C)C/C=C/S(=O)(=O)CCN(C)c1nc(OC[C@@H]2CCCN2C)nc2c1CCN(c1cccc3cccc(Cl)c13)C2 [Example 52, (S,E)-7-(8-chloronaphthalen-1-yl)-N-(2-((3-(dimethylamino)prop-1-en-1-yl)sulfonyl)ethyl)-N-methyl-2-((1-methylpyrrolidin-2-yl)methoxy)-5,6,7,8-tetrahydropyrido[3,4-d]pyrimidin-4-amine]
17 | < 10 nM | CCN(CC)C/C=C/S(=O)(=O)CCN(C)c1nc(OCC23CCCN2CCC3)nc2c1CCN(c1cccc3cccc(Cl)c13)C2 [Example 55, (E)-7-(8-chloronaphthalen-1-yl)-N-(2-((3-(diethylamino)prop-1-en-1-yl)sulfonyl)ethyl)-2-((hexahydro-1H-pyrrolizin-7a-yl)methoxy)-N-methyl-5,6,7,8-tetrahydropyrido[3,4-d]pyrimidin-4-amine]
18 | 10 to 100 nM | CN(c1nc(OC[C@@]23CCCN2C[C@H](F)C3)nc2c(F)c(-c3cccc4cccc(Cl)c34)ncc12)[C@H]1CN(C(=O)/C=C/c2nc(C(C)(C)O)no2)C[C@@H]1F [Example 56, (E)-1-((3S,4S)-3-((7-(8-chloronaphthalen-1-yl)-8-fluoro-2-(((2R,7aS)-2-fluorohexahydro-1H-pyrrolizin-7a-yl)methoxy)pyrido[4,3-d]pyrimidin-4-yl)(methyl)amino)-4-fluoropyrrolidin-1-yl)-3-(3-(2-hydroxypropan-2-yl)-1,2,4-oxadiazol-5-yl)prop-2-en-1-one]
19 | < 10 nM | CN(c1nc(OC[C@@]23CCCN2C[C@H](F)C3)nc2c(F)c(-c3cccc4cccc(Cl)c34)ncc12)[C@@H]1CCN(C(=O)C#CC2CCCN2)C1 (stereo partly drawn) [Example 59, 1-((R)-3-((7-(8-chloronaphthalen-1-yl)-8-fluoro-2-(((2R,7aS)-2-fluorotetrahydro-1H-pyrrolizin-7a(5H)-yl)methoxy)pyrido[4,3-d]pyrimidin-4-yl)(methyl)amino)pyrrolidin-1-yl)-3-(pyrrolidin-2-yl)prop-2-yn-1-one]
20 | < 10 nM | CN(c1nc(OC[C@@]23CCCN2C[C@H](F)C3)nc2c(F)c(-c3cccc4cccc(Cl)c34)ncc12)[C@@H]1CCN(C(=O)C#CC2CNCCO2)C1 (stereo partly drawn) [Example 64, 1-((R)-3-((7-(8-chloronaphthalen-1-yl)-8-fluoro-2-(((2R,7aS)-2-fluorohexahydro-1H-pyrrolizin-7a-yl)methoxy)pyrido[4,3-d]pyrimidin-4-yl)(methyl)amino)pyrrolidin-1-yl)-3-(morpholin-2-yl)prop-2-yn-1-one]
